Experimental data from PubChem BioAssay AID2060895 (Molecular Pharmacology Branch, DTP, NCI, 2025).

Test system: PDC 899932-113-R3-J6 complex spheroid viability
Assay: Anticancer human tumor 899932-113-R3-J6-PDC patient-derived melanoma cell line growth inhibition [RAS]
Conditions: for IC50: curve of first compound; for viability, T/C: stronger effect = lower value
Method in brief: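 Agents were tested in combination matrices in half-log decrements from a top concentration at or near clinical Cmax (10 microM if undetermined). Targets were multi-cell spheroids of tumour lines plus HUVEC and MSC stromal cells.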

[1] = second compound 0.0316 µM, first compound 0.0316 µM
[2] = second compound 0.0316 µM, first compound 0.1 µM
[3] = second compound 0.0316 µM, first compound 0.316 µM
[4] = second compound 0.0316 µM, first compound 1 µM
[5] = second compound 0.0316 µM, first compound 3.16 µM
[6] = second compound 0.0316 µM, first compound 10 µM
[7] = second compound 0.1 µM, first compound 0.0316 µM
[8] = second compound 0.1 µM, first compound 0.1 µM
[9] = second compound 0.1 µM, first compound 0.316 µM
[10] = second compound 0.1 µM, first compound 1 µM
[11] = second compound 0.1 µM, first compound 3.16 µM
[12] = second compound 0.1 µM, first compound 10 µM
[13] = second compound 0.316 µM, first compound 0.0316 µM
[14] = second compound 0.316 µM, first compound 0.1 µM
[15] = second compound 0.316 µM, first compound 0.316 µM
[16] = second compound 0.316 µM, first compound 1 µM
[17] = second compound 0.316 µM, first compound 3.16 µM
[18] = second compound 0.316 µM, first compound 10 µM
[19] = second compound 1 µM, first compound 0.0316 µM
[20] = second compound 1 µM, first compound 0.1 µM
[21] = second compound 1 µM, first compound 0.316 µM
[22] = second compound 1 µM, first compound 1 µM
[23] = second compound 1 µM, first compound 3.16 µM
[24] = second compound 1 µM, first compound 10 µM
[25] = second compound 3.16 µM, first compound 0.0316 µM
[26] = second compound 3.16 µM, first compound 0.1 µM
[27] = second compound 3.16 µM, first compound 0.316 µM
[28] = second compound 3.16 µM, first compound 1 µM
[29] = second compound 3.16 µM, first compound 3.16 µM
[30] = second compound 3.16 µM, first compound 10 µM
[31] = second compound 10 µM, first compound 0.0316 µM
[32] = second compound 10 µM, first compound 0.1 µM
[33] = second compound 10 µM, first compound 0.316 µM
[34] = second compound 10 µM, first compound 1 µM
[35] = second compound 10 µM, first compound 3.16 µM
[36] = second compound 10 µM, first compound 10 µM
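For viability, T/C in this document: spheroids exposed to agents for seven days before readout; 100% = DMSO vehicle control wells.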

Molecule `Cc1nc(N2CCC3(CC2)COC(C)C3N)c(CO)nc1Sc1ccnc(N)c1Cl` (stereo unspecified) + C#Cc1c(F)ccc2cc(O)cc(-c3ncc4c(N5CC6CCC(C5)N6)nc(OCC56CCCN5CC(F)C6)nc4c3F)c12 has an IC50 (second compound 0.0316 µM) of over 10 µM, an IC50 (second compound 0.1 µM) of over 10 µM and an IC50 (second compound 0.316 µM) of over 10 µM. It also gave an IC50 (second compound 1 µM) of over 10 µM, an IC50 (second compound 3.16 µM) of over 10 µM and an IC50 (second compound 10 µM) of over 10 µM. The viability, T/C [1] was 98.1%, the viability, T/C [2] was 104% and the viability, T/C [3] was 108%. The viability, T/C [4] was 104%, the viability, T/C [5] was 118% and the viability, T/C [6] was 119%. The viability, T/C [7] was 99.3%, the viability, T/C [8] was 99.1% and the viability, T/C [9] was 107%. For the same molecule, the viability, T/C [10] was 103%, the viability, T/C [11] was 114% and the viability, T/C [12] was 123%. The viability, T/C [13] was 111%, the viability, T/C [14] was 101% and the viability, T/C [15] was 96.3%. It also gave a viability, T/C [16] of 118%, a viability, T/C [17] of 117% and a viability, T/C [18] of 119%. For the same molecule, the viability, T/C [19] was 106%, the viability, T/C [20] was 109% and the viability, T/C [21] was 108%. For the same molecule, the viability, T/C [22] was 113%, the viability, T/C [23] was 116% and the viability, T/C [24] was 122%. It also gave a viability, T/C [25] of 126%, a viability, T/C [26] of 110% and a viability, T/C [27] of 108%. It also gave a viability, T/C [28] of 112%, a viability, T/C [29] of 122% and a viability, T/C [30] of 121%. For the same molecule, the viability, T/C [31] was 106%, the viability, T/C [32] was 111% and the viability, T/C [33] was 112%. It also gave a viability, T/C [34] of 123%, a viability, T/C [35] of 113% and a viability, T/C [36] of 123%.

Work on `NC1c2ccccc2OC12CCN(c1cnc3c(N4CCCc5ncccc54)n[nH]c3n1)CC2` (stereo unspecified) + C#Cc1c(F)ccc2cc(O)cc(-c3ncc4c(N5CC6CCC(C5)N6)nc(OCC56CCCN5CC(F)C6)nc4c3F)c12 yielded an IC50 (second compound 0.0316 µM) of over 10 µM, an IC50 (second compound 0.1 µM) of over 10 µM and an IC50 (second compound 0.316 µM) of over 10 µM. It also gave an IC50 (second compound 1 µM) of over 10 µM, an IC50 (second compound 3.16 µM) of over 10 µM and an IC50 (second compound 10 µM) of over 10 µM. It also gave a viability, T/C [1] of 108%, a viability, T/C [2] of 103% and a viability, T/C [3] of 117%. It also gave a viability, T/C [4] of 121%, a viability, T/C [5] of 104% and a viability, T/C [6] of 98.8%. It also gave a viability, T/C [7] of 111%, a viability, T/C [8] of 115% and a viability, T/C [9] of 114%. For the same molecule, the viability, T/C [10] was 114%, the viability, T/C [11] was 117% and the viability, T/C [12] was 96.4%. The viability, T/C [13] was 108%, the viability, T/C [14] was 120% and the viability, T/C [15] was 105%. For the same molecule, the viability, T/C [16] was 116%, the viability, T/C [17] was 110% and the viability, T/C [18] was 96.6%. It also gave a viability, T/C [19] of 106%, a viability, T/C [20] of 104% and a viability, T/C [21] of 124%. It also gave a viability, T/C [22] of 112%, a viability, T/C [23] of 105% and a viability, T/C [24] of 111%. It also gave a viability, T/C [25] of 134%, a viability, T/C [26] of 112% and a viability, T/C [27] of 135%. For the same molecule, the viability, T/C [28] was 133%, the viability, T/C [29] was 120% and the viability, T/C [30] was 107%. It also gave a viability, T/C [31] of 123%, a viability, T/C [32] of 126% and a viability, T/C [33] of 120%. It also gave a viability, T/C [34] of 117%, a viability, T/C [35] of 112% and a viability, T/C [36] of 86.5%.

In the case of `Nc1ccn(C2OC(CO)C(O)C2(F)F)c(=O)n1` (stereo unspecified) + C#Cc1c(F)ccc2cc(O)cc(-c3ncc4c(N5CC6CCC(C5)N6)nc(OCC56CCCN5CC(F)C6)nc4c3F)c12, the IC50 (second compound 0.0316 µM) is reported as 0.0176 µM, the IC50 (second compound 0.1 µM) is reported as 0.0193 µM and the IC50 (second compound 0.316 µM) is reported as 0.0171 µM. The IC50 (second compound 1 µM) was 0.0192 µM, the IC50 (second compound 3.16 µM) was 0.0165 µM and the IC50 (second compound 10 µM) was 0.0176 µM. The viability, T/C (second compound 0.0316 µM, first compound 0.00316 µM) was 102%, the viability, T/C (second compound 0.0316 µM, first compound 0.01 µM) was 65.1% and the viability, T/C [1] was 35.3%. The viability, T/C [2] was 21.2%, the viability, T/C [3] was 18.6% and the viability, T/C [4] was 22.1%. It also gave a viability, T/C (second compound 0.1 µM, first compound 0.00316 µM) of 95%, a viability, T/C (second compound 0.1 µM, first compound 0.01 µM) of 71.7% and a viability, T/C [7] of 34.3%. It also gave a viability, T/C [8] of 18.9%, a viability, T/C [9] of 20.5% and a viability, T/C [10] of 20.6%. It also gave a viability, T/C (second compound 0.316 µM, first compound 0.00316 µM) of 99.1%, a viability, T/C (second compound 0.316 µM, first compound 0.01 µM) of 65.1% and a viability, T/C [13] of 33.7%. The viability, T/C [14] was 17.9%, the viability, T/C [15] was 20.2% and the viability, T/C [16] was 20.1%. It also gave a viability, T/C (second compound 1 µM, first compound 0.00316 µM) of 99.2%, a viability, T/C (second compound 1 µM, first compound 0.01 µM) of 70.4% and a viability, T/C [19] of 35.6%. It also gave a viability, T/C [20] of 16.4%, a viability, T/C [21] of 15.3% and a viability, T/C [22] of 20.8%. It also gave a viability, T/C (second compound 3.16 µM, first compound 0.00316 µM) of 103%, a viability, T/C (second compound 3.16 µM, first compound 0.01 µM) of 65.6% and a viability, T/C [25] of 29.9%. It also gave a viability, T/C [26] of 19.8%, a viability, T/C [27] of 17.5% and a viability, T/C [28] of 18.8%. For the same molecule, the viability, T/C (second compound 10 µM, first compound 0.00316 µM) was 102%, the viability, T/C (second compound 10 µM, first compound 0.01 µM) was 67.2% and the viability, T/C [31] was 33.5%. It also gave a viability, T/C [32] of 15.2%, a viability, T/C [33] of 18.3% and a viability, T/C [34] of 19.2%.
